Marks after values point to notes of the source that are not given here.
Columns and labels:
Ca+2 current (ICa-L) = assay: L-type Ca2+ current recording in isolated ventricular myocytes (patch clamp); type: cell-based, cat
Protocol: The latter process was performed three times.
Patch-clamp current and voltage recordings were made with the ruptured patch whole-cell configuration at 36-37° C. (14). For studies on L-type Ca^2+ currents, cells were bathed with modified Tyrode's containing (in mM): 157 TEA-Cl, 5 CaCl2, 0.5 MgCl2, and 10 HEPES. Electrode internal solution contained (in mM): 10 L-Glutamic Acid, 20 CsCl, 10 EGTA, 1 MgCl2, 1 CaCl2, 20 HEPES, and 5 ATP-Mg2; pH adjusted with CsOH. In all of the studies, electrode resistance was measured to be 2-3.5 MΩ. The reference zero potential was adjusted in the bath before forming seals. Recordings were performed with an Axon Instruments 200B amplifier (Axon Instruments, Culver City, Calif. USA) interfacing a DigiData 1200 DA/AD acquisition system. Ionic currents were evoked by depolarizing voltage step (1 sec-long) from −30 to +60 mV, in 10-mV increments, from a holding potential of −40 mV delivered at the frequency of 1 Hz. Action potentials were elicited at a frequency of 1 Hz by injection of brief depolarizing current pulses. Software used in data acquisition and analysis was pClamp v.6.04 and Origin v 5.0 (Microcal Software, Northampton, Mass.).

[1] = test system: Adult human kidney proximal tubular (HK-2) cells; conditions: HK-2 cells cultured for 0-20 hr; necrotic form of cell death; cited from earlier work
[2] = test system: isolated feline ventricular myocytes; conditions: 25 μM, soon after exposure
[3] = test system: open chest rats in the absence of myocardial ischemia; assay: Hemodynamic parameters in open chest rats in the absence of myocardial ischemia (first test procedure); type: in vivo, rat; conditions: for +dP/dt / Heart Rate / Mean BP / LVPdev: percent change from pre-drug baseline 15 minutes after drug administration
Protocol: Male Sprague-Dawley rats weighing 505±5 g were anesthetized with sodium pentobarbital (50 mg/kg I.P.). An endotracheal tube was secured in place and connected to a small-animal respirator (Harvard Apparatus, Model 683, South Natick, Mass.) set on 100 breaths/min, with a tidal volume of 2-3 mnL/breath. Body temperature was maintained using a heating pad with circulating warm water (K-model 100, Baxter Laboratories). A left thoracotomy was performed, the heart exposed and the pericardium removed. Left ventricular pressure was measured using a saline-filled polyethylene catheter attached to an angiocatheter (20 Gauge) inserted through the apex of the heart and connected to a P23 ID Statham/Gould pressure transducer. Arterial pressure was monitored via a saline-filled polyethylene catheter (PE 50) introduced into the left carotid artery. The right jugular vein was also cannulated with a polyethylene catheter (PE 50) for IV drug infusions and volume repletion (0.9% NaCl). Subcutaneous needles were positioned in the limbs for ECG recordings. […]

[4] = test system: open chest rats undergoing myocardial ischemia/reperfusion; assay: Survival of open chest rats undergoing myocardial ischemia/reperfusion (second test procedure); type: in vivo, rat; conditions: for percent survival: 3 mg/kg iv
TNF = assay: Serum TNF (ELISA) in open chest rats undergoing myocardial ischemia; type: in vivo, rat; conditions: for serum concentration of TNF: mean ± sem
Protocol: Male Sprague-Dawley rats weighing 505±5 g were anesthetized with sodium pentobarbital (50 mg/kg I.P.). An endotracheal tube was secured in place and connected to a small-animal respirator (Harvard Apparatus, Model 683, South Natick, Mass.) set on 100 breaths/min, with a tidal volume of 2-3 mnL/breath. Body temperature was maintained using a heating pad with circulating warm water (K-model 100, Baxter Laboratories). A left thoracotomy was performed, the heart exposed and the pericardium removed. Left ventricular pressure was measured using a saline-filled polyethylene catheter attached to an angiocatheter (20 Gauge) inserted through the apex of the heart and connected to a P23 ID Statham/Gould pressure transducer. Arterial pressure was monitored via a saline-filled polyethylene catheter (PE 50) introduced into the left carotid artery. The right jugular vein was also cannulated with a polyethylene catheter (PE 50) for IV drug infusions and volume repletion (0.9% NaCl). Subcutaneous needles were positioned in the limbs for ECG recordings.
(§1) In the second test procedure, the main coronary artery of rats undergoing coronary occlusion was located and occluded close to its origin using a 5-0 suture passed underneath the vessel that could be tightened over a short section of PE tubing (PE 20) to initiate regional ischemia. Reperfusion was reinstated by removing the short segment of PE tubing.
Blood samples were collected in syringes in the absence of any anticoagulant and immediately placed in Microtainer® serum separator tubes (Becton Dickinson) and centrifuged at 2000 g for 6 minutes. The serum was removed, frozen immediately, and stored at −20° C. until the analysis could be performed. The concentration of serum TNF collected at preselected time points was determined for individual rats by enzyme-linked immunosorbent assay (ELISA), utilizing the Factor-Test-X (Genzyme Inc, Cambridge, Mass., Cat #80-3905-01) according to the manufacturer's instructions. Briefly, 100 μL of serum was diluted 1:2 in 0.1% bovine serum albumin/phosphate buffered saline and added in duplicate to a 96-well microtiter plate. A standard curve was generated by plotting the concentrations of rat TNF standards versus their absorbances. […] The detection limit of this assay was 10 pg/mL. Additionally, the manufacturer has determined that this ELISA is highly specific for rat TNF.

[5] = test system: open chest rats undergoing myocardial ischemia/reperfusion; assay: Determination of infarct size (TTC staining); type: in vivo, rat; conditions: 3 mg/kg i.v.
Protocol: as §1
The heart was removed and sliced in five to six coronal sections, which were immersed in 1% triphenyltetrazolium chloride (TTC) for 10-15 minutes. The heart sections were removed, blotted dry and traced onto acetate sheets. The areas of infarction were clearly demarcated by a pale appearance in the ischemic zone, and a brick red color of non-infarcted myocardium. The areas of all sections were determined by planimetric methods and infarct area was expressed as a percentage of the left ventricle.

[6] = 1.0 mg/kg iv (second dose, after 0.3 mg/kg iv)
[7] = following infusion (0.1+0.3 mg/kg)
[8] = 0.1 mg/kg iv (first dose), mean ± sem
[9] = 0.3 mg/kg iv (second dose, after 0.1 mg/kg iv)

For `CCCCCCCCCCCCC/C=C/[C@@H](O)[C@@H](N)CO` [Sphingosine], the “block of ICa-L” value (Ca+2 current (ICa-L); 2.5 μM) is listed as 17±7%, the “block of ICa-L” value (Ca+2 current (ICa-L); 25 μM) is listed as 75±4% and the “concentration inducing rapid, concentration-dependent cytotoxicity” value [1] is listed as ≥ 10 µM. For the same compound, the “myocardial cell death (morphology, lack of viability)” value [2] was “lead to myocardial cell death”, the “+dP/dt” value ([3]; 0.3 mg/kg iv (first dose)) was −33 ± 12% and the “Heart Rate” value ([3]; 0.3 mg/kg iv (first dose)) was −4 ± 4%. For the same compound, the “Mean BP” value ([3]; 0.3 mg/kg iv (first dose)) was −24 ± 12%, the “+dP/dt” value [3, 6] was −32 ± 18% and the “Heart Rate” value [3, 6] was −18 ± 1%. For the same compound, the LVPdev [3, 6] was −24 ± 14%, the “Mean BP” value [3, 6] was −17 ± 19% and the “+dP/dt reduced from baseline” value [3, 7] was 33±12%. For the same compound, the “LVP depressed from baseline” value [3, 7] was 24±8%.
With Etanercept the “mortality resulting from myocardial ischemia/reperfusion” value ([4]; 3 mg/kg i.v. administered immediately before occlusion) was “significantly reduced mortality”, the rats dead ([4]; 3 mg/kg i.v., t=90 minutes of reperfusion) was 1 out of 9 and the percent survival ([4]; 0 min (end of ischemia)) was 100%. It also gave a percent survival ([4]; 30 min reperfusion) of 100%, a percent survival ([4]; 60 min reperfusion) of 100% and a percent survival ([4]; 90 min reperfusion) of 89%. For the same compound, the percent survival ([4]; 120 min reperfusion) was 89* percent, the percent survival ([4]; 150 min reperfusion) was 88* percent and the percent survival ([4]; −30 min (baseline)) was 100%. For the same compound, the “serum concentration of TNF” value (TNF; 0 min (end of ischemia)) was 2299 ± 357 pg/mL, the “serum concentration of TNF” value (TNF; 30 min reperfusion) was 2057 ± 349 pg/mL and the “serum concentration of TNF” value (TNF; 60 min reperfusion) was 1592 ± 258 pg/mL. The “serum concentration of TNF” value (TNF; 90 min reperfusion) was 1108 ± 279 pg/mL, the “serum concentration of TNF” value (TNF; 120 min reperfusion) was 721 ± 209 pg/mL and the “serum concentration of TNF” value (TNF; 150 min reperfusion) was 580 ± 193 pg/mL. For the same compound, the “effect on TNFα spike in concentration in response to vascular occlusion” value (TNF; at 0 minutes) was “significantly reduced”, the “serum concentration of TNF” value (TNF; −30 min (baseline)) was 0 ± 0 pg/mL and the “Infarct size, expressed as a percentage of the left ventricle” value [5] was 24±3%.
With Sphingomyelin the “+dP/dt” value [3, 8] was 1 ± 13%, the “Heart Rate” value [3, 8] was 7 ± 9% and the LVPdev [3, 8] was 3 ± 11%. The “Mean BP” value [3, 8] was −3 ± 17%, the “+dP/dt” value [3, 9] was 6 ± 15% and the “Heart Rate” value [3, 9] was 8 ± 10%. For the same compound, the LVPdev [3, 9] was 4 ± 12% and the “Mean BP” value [3, 9] was 2 ± 2%.

— patent US20020150582A1, “Method of treating or inhibiting cellular injury or cell death” (priority 2001, published 2002)
